Assay results from PMC9363158 (HIV medicine, 2021).
“And” between values parts separate entries of the source, which are not always exact repeats. Equal entries are not always repeated. Where two headings read alike, the source gives them in different places.

How the values were obtained:
CYP2B6 [1] = conditions: total dolutegravir up to and including 40 μM, 48 h; cited from earlier work
CYP3A4 [2] = assay: in vitro; conditions: human, fold induction of CYP3A4 expression
[3] = dolutegravir protein binding in Williams' Medium E by rapid equilibrium dialysis; format: in vitro ADME
CYP2B6 [4] = assay: CYP gene expression in human hepatocytes; format: in vitro ADME
CYP3A4 [5] = conditions: total dolutegravir up to and including 40 μM, 48 h; cited from earlier work
CYP3A4 [6] = tested on: CYP3A4
CYP1A2 = assay: CYP gene expression in human hepatocytes; format: in vitro ADME
[7] = in vivo; cited from earlier work
rhCYP2C9 = rhCYP2C9 (Homo sapiens, UniProt P11712); assay: levonorgestrel clearance by recombinant human CYP; format: in vitro ADME
rhCYP2C9, sequence (P11712 whole entry): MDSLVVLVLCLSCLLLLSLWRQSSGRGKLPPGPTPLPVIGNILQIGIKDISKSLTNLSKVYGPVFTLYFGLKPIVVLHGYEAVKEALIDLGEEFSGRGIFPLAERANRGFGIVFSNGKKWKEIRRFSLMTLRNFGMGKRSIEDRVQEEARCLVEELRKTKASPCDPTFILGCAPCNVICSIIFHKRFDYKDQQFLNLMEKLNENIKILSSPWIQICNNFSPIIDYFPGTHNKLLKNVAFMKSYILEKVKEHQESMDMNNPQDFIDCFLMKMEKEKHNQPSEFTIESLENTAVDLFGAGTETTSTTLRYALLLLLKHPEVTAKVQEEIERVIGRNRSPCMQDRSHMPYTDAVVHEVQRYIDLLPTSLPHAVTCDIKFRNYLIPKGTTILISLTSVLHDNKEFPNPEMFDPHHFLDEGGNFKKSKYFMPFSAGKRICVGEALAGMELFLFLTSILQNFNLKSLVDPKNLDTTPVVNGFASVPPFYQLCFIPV

rhCYP3A5 = rhCYP3A5 (Homo sapiens, UniProt P20815); assay: levonorgestrel clearance by recombinant human CYP; format: in vitro ADME
rhCYP3A5, sequence (P20815 whole entry): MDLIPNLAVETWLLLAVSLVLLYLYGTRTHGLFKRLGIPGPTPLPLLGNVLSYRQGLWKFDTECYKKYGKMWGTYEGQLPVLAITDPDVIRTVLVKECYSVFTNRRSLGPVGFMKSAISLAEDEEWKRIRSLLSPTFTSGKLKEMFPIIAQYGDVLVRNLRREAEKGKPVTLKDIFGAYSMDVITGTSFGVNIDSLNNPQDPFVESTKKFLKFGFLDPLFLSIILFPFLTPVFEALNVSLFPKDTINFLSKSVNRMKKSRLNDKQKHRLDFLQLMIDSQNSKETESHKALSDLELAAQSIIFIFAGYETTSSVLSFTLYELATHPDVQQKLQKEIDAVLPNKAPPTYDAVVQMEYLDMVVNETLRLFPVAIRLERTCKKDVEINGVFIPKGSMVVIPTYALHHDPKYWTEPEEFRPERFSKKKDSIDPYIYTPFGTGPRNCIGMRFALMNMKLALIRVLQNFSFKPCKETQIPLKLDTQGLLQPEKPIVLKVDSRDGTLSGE

rhCYP3A4 = rhCYP3A4 (Homo sapiens, UniProt P08684); assay: levonorgestrel clearance by recombinant human CYP; format: in vitro ADME
rhCYP3A4, sequence (P08684 whole entry): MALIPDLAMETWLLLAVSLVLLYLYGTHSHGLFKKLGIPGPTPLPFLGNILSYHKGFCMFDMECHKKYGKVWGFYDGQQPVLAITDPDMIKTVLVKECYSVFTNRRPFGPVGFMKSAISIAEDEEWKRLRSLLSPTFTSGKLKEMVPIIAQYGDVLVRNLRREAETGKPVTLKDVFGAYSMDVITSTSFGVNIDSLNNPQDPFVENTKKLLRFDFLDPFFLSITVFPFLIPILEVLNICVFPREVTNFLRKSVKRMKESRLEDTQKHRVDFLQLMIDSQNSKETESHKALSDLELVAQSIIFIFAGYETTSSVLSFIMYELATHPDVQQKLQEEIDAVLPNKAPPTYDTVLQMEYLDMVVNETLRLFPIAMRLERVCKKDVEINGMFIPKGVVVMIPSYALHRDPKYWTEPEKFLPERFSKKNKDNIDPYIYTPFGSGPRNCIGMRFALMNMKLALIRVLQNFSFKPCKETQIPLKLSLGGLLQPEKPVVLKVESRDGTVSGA

rhCYP2C19 = rhCYP2C19 (Homo sapiens, UniProt P33261); assay: levonorgestrel clearance by recombinant human CYP; format: in vitro ADME
rhCYP2C19, sequence (P33261 whole entry): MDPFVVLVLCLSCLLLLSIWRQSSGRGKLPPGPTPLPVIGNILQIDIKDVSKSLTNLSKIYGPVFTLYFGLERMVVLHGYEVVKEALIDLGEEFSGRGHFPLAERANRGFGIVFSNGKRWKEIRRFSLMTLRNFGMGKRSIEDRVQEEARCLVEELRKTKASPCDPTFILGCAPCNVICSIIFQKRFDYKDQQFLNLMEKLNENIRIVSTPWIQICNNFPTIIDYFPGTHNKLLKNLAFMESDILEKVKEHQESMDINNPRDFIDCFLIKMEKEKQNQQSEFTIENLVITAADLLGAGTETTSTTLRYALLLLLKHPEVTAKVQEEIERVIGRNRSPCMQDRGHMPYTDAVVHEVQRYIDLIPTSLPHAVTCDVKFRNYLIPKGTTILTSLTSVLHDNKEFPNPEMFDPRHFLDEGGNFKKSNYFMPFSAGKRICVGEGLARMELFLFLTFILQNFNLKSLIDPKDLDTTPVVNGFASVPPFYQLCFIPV

[8] = Jadelle subdermal implants, cited from earlier work
[9] = cited from earlier work
[10] = levonorgestrel CLint.app. by cryopreserved primary human hepatocytes; format: in vitro ADME; conditions: cryopreserved primary human hepatocytes (plated)
[11] = administered orally; cited from earlier work
hepatic CYPs = assay: total apparent and systemic plasma clearance scaled from rhCYP data; format: in vitro ADME, human
rhCYP2B6 = biological target: T1, rhCYP2B6 (Homo sapiens, UniProt P20813); assay: levonorgestrel clearance by recombinant human CYP; format: in vitro ADME
T1 sequence (P20813 1-491): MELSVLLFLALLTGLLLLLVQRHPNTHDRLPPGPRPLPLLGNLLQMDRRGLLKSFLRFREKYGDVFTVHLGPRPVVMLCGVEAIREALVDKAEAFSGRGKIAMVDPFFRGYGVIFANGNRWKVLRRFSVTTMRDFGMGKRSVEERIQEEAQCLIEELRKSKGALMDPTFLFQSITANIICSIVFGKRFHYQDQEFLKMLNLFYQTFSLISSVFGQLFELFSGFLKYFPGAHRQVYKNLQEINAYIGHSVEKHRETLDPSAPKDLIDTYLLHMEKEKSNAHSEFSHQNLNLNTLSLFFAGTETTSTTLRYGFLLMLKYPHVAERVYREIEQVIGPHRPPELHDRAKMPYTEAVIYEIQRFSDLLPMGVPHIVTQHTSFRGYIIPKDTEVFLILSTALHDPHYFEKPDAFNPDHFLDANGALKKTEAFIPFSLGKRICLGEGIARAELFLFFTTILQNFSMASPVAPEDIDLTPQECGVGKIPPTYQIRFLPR

rhCYP1A2 = biological target: T2, rhCYP1A2 (Homo sapiens, UniProt P05177); assay: levonorgestrel clearance by recombinant human CYP; format: in vitro ADME
T2 sequence (P05177 1-516): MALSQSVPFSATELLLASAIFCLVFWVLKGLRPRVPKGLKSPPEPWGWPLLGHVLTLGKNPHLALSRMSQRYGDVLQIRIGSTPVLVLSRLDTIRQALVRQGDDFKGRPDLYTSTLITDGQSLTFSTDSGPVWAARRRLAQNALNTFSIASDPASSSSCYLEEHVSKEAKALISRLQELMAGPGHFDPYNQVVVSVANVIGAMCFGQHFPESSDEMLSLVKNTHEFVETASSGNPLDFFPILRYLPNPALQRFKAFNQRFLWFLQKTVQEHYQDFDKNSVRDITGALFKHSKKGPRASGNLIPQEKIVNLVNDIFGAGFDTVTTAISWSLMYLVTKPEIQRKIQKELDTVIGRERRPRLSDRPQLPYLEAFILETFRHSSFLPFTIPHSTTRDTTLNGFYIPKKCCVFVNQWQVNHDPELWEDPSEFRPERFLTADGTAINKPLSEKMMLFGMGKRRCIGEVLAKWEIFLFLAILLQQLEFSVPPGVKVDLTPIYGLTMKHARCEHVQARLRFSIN

CYP3A4 [12] = conditions: read-out: mean observed Km of progesterone metabolism by CYP3A4; liver microsome studies; cited from earlier work
CYP2C9 = conditions: read-out: mean observed Km of progesterone metabolism by CYP2C9; liver microsome studies; cited from earlier work
CYP2C19 = conditions: read-out: mean observed Km of progesterone metabolism by CYP2C19; liver microsome studies; cited from earlier work
[13] = clinical observation with rifampin; cited from earlier work
[14] = human, cryopreserved primary human hepatocytes
[15] = scaled from rhCYP data to adult female liver (Eq. 2)
[16] = levonorgestrel 5 μM, 60 min, vs ketoconazole inhibitor control

Structure (SMILES): C[C@@H]1CCO[C@H]2Cn3cc(C(=O)NCc4ccc(F)cc4F)c(=O)c(O)c3C(=O)N12 [dolutegravir]
- effect on expression of CYP2B6 (CYP2B6 [1]): expression of neither CYP2B6 nor CYP3A4 was affected
- fold induction (CYP3A4 [2]): 2.3 ± 0.4
- fraction unbound at 4 h, 5 μM [3]: 0.43 ± 0.09
- effect on expression of CYP2B6 (CYP2B6 [4]; dolutegravir at concentrations spanning unbound range reported in human plasma (24.6–57.2 nM), 72 h): no effect
- fold induction at 72 h, 3.33 μM (CYP2B6 [4]; [14]): 2.2 ± 0.3
- fold induction at 72 h, 10 μM (CYP2B6 [4]; [14]): 2.3 ± 0.7
- effect on expression of CYP3A4 (CYP3A4 [5]): expression of neither CYP2B6 nor CYP3A4 was affected
- effect on expression of CYP3A4 (CYP3A4 [6]): no effect
- induction of CYP1A2 expression (≥ two-fold above vehicle control) (CYP1A2; dolutegravir 0.00033–10 μM (unbound 0.142–4310 nM), 72 h): did not induce the expression of CYP1A2
- unbound concentration range in human plasma [7]: 24.6 to 57.2 nM

Structure (SMILES): C#C[C@]1(O)CC[C@H]2[C@@H]3CCC4=CC(=O)CC[C@@H]4[C@H]3CC[C@@]21CC [levonorgestrel]
- levonorgestrel CLint.app. rhCYP2C9 (rhCYP2C9; levonorgestrel 5 μM, 60 min, vs sulfaphenazole inhibitor control): 0.062 ± 0.010 µL/min/pmol
- TCLH, CYP2C9 (rhCYP2C9; [15]): 11.6 ± 1.9 L/h
- levonorgestrel CLint.app. rhCYP3A5 (rhCYP3A5; [16]): 0.178 ± 0.027 µL/min/pmol
- TCLH, CYP3A5 (rhCYP3A5; [15]): 9.4 ± 1.4 L/h
- levonorgestrel CLint.app. mediated by rhCYP3A4 (rhCYP3A4; [16]): 0.182 ± 0.036 µL/min/pmol
- total intrinsic clearance by a single CYP in the liver as a whole (TCLH), CYP3A4 (rhCYP3A4; [15]): 52.5 ± 10.4 L/h
- levonorgestrel CLint.app. rhCYP2C19 (rhCYP2C19; levonorgestrel 5 μM, 60 min, vs (+)-N-3-benzylnirvanol inhibitor control): 0.046 ± 0.005 µL/min/pmol
- TCLH, CYP2C19 (rhCYP2C19; [15]): 1.6 ± 0.2 L/h
- plasma concentration of levonorgestrel ([8]; 1 month after insertion): 1.39 nM and 435 pg/mL
- plasma concentration of levonorgestrel ([8]; 3 years after insertion): 0.90 nM and 280 pg/mL
- bound to human plasma [9]: 97%
- fraction unbound in plasma (fu) ([9]; set from 97% binding): 3%
- hepatocyte CLint at 1 nM [10]: 22.4 ± 5 µL/min/1e6 cells
- oral bioavailability [11]: high bioavailability
- total systemic plasma clearance (hepatic CYPs; from CLapp, fu 3% (Eq. 4)): 2.38 ± 0.46 L/h
- total apparent clearance (CLapp) by the hepatic CYPs measured (hepatic CYPs; sum of TCLH of six CYPs (Eq. 3)): 80.97 ± 15.53 L/h
- levonorgestrel CLint.app. rhCYP2B6 (rhCYP2B6; levonorgestrel 5 μM, 60 min, vs sertraline inhibitor control): 0.052 ± 0.004 µL/min/pmol
- TCLH, CYP2B6 (rhCYP2B6; [15]): 2.6 ± 0.2 L/h
- levonorgestrel CLint.app. rhCYP1A2 (rhCYP1A2; levonorgestrel 5 μM, 60 min, vs α-naphthoflavone inhibitor control): 0.028 ± 0.012 µL/min/pmol
- TCLH, CYP1A2 (rhCYP1A2; [15]): 3.4 ± 1.5 L/h

Structure (SMILES): CCC1(c2ccccc2)C(=O)NC(=O)NC1=O [phenobarbital]
- fold induction at 72 h, 1 mM (CYP2B6 [4]; [14]): 2.6 ± 1.1
- fold increase in CYP3A4 expression (CYP3A4 [6]; human, hepatocytes): 4.8 ± 0.7 fold
- fold induction at 72 h, 1 mM (CYP1A2; [14]): 2.7 ± 0.6

Structure (SMILES): CC(=O)[C@H]1CC[C@H]2[C@@H]3CCC4=CC(=O)CC[C@]4(C)[C@H]3CC[C@]12C [progesterone]
- Km (CYP3A4 [12]): 80 µM
- Km (CYP2C9): 46 µM
- Km (CYP2C19): 37 µM

Structure (SMILES): CO[C@H]1/C=C/O[C@@]2(C)Oc3c(C)c(O)c4c(O)c(c(/C=N/N5CCN(C)CC5)c(O)c4c3C2=O)NC(=O)/C(C)=C\C=C\[C@H](C)[C@H](O)[C@@H](C)[C@@H](O)[C@@H](C)[C@H](OC(C)=O)[C@@H]1C [rifampin]
- fold induction at 72 h, 10 μM (CYP2B6 [4]; [14]): 2 ± 0.5
- decrease of levonorgestrel exposure [13]: 58%
